The values below come from patent publication EP0908457B1, “3-(1,2-benzisothiazol- and isoxazol-5-Y1)-2,4(1H,3H)-pyrimidinedione or thione and 3-(1,2-benzisothiazol- and isoxazol-5-y1)-4(3H)-pyrimidinone or thione herbicidal agents” (BASF AKTIENGESELLSCHAFT, priority 1997, dated 1999).

Data set [1] concerns Echinochloa oryzoides (Ard.) Fritsch. Description: Preemergence weed control under flooded paddy conditions, ECHORC (Watergrass (Calif.)). As to herbicidal effect rating, ECHORC: meaning of each grade not given here. Type of data set: in vivo. As to conditions: preemergence, flooded paddy, rated three to four weeks after treatment.
For another data set, the system named is Sagittaria pygmaea, L. Description: Preemergence weed control under flooded paddy conditions, SAGPY (Arrowhead (Pygmaea)). As to herbicidal effect rating, SAGPY: meaning of each grade not given here. The format is in vivo. As to conditions: preemergence, flooded paddy, rated three to four weeks after treatment.
Data set [2] deals with Monochoria vaginalis, Presl. Description: Preemergence weed control under flooded paddy conditions, MOOVA (Monochoria). As to herbicidal effect rating, MOOVA: meaning of each grade not given here. Type of data set: in vivo. As to conditions: preemergence, flooded paddy, rated three to four weeks after treatment.
Data set [3] deals with Oryza sativa, (L.) Tebonnet. Kind of data set: Rice tolerance to post-transplant applications under flooded paddy conditions (Example 187), ORYSAT (Rice, Tebonnet). As to conditions: rated three to four weeks after treatment.
Data set [4] concerns Cyperus serotinus, Rottb. Description: Preemergence weed control under flooded paddy conditions, CYPSE (Flatsedge). As to herbicidal effect rating, CYPSE: meaning of each grade not given here. The format is in vivo. As to conditions: preemergence, rated three to four weeks after treatment.
The subject of a further data set is Cyperus iria. Kind of data set: Preemergence weed control under flooded paddy conditions, CYPIR (Rice Flatsedge). As to herbicidal effect rating, CYPIR: meaning of each grade not given here. The format is in vivo. As to conditions: preemergence, flooded paddy, rated three to four weeks after treatment.

Consider `Cc1ccc(OC(C)(C)C(=O)NS(C)(=O)=O)c(-c2nsc3ccc(-n4c(=O)cc(C(F)(F)F)n(C)c4=O)cc23)c1` [Example 576, Propionamide, 2-{{2-{5-[3,6-dihydro-3-methyl-2,6-dioxo-4-(trifluoromethyl)-1(2H)-pyrimidinyl]-1,2-benzisothiazol-3-yl}-p-tolyl}oxy}-2-methyl-N-(methylsulfonyl)-], for which the “herbicidal effect rating, ECHORC” value in data set [1] (Rate 0.0320 kg/ha) is given as 6.0; in data set [1] (Rate 0.0620 kg/ha), 7.0; in data set [1] (Rate 0.1250 kg/ha), 7.0; in data set [1] (Rate 0.2500 kg/ha), 9.0. The “herbicidal effect rating, SAGPY” value turned out to be 0.0 in the data set with Sagittaria pygmaea, L. (Rate 0.0320 kg/ha); 0.0 in the data set with Sagittaria pygmaea, L. (Rate 0.0620 kg/ha); 3.0 in the data set on Sagittaria pygmaea, L. (Rate 0.1250 kg/ha); 4.0 with Sagittaria pygmaea, L. (Rate 0.2500 kg/ha). Also, the “herbicidal effect rating, MOOVA” value is 7.0 in data set [2] (Rate 0.0320 kg/ha), 9.0 in data set [2] (Rate 0.0620 kg/ha), 9.0 in data set [2] (Rate 0.1250 kg/ha) and 9.0 in data set [2] (Rate 0.2500 kg/ha). Also, the “herbicidal effect rating ORYSAT” value in data set [3] (Rate 0.0320 kg/ha) amounted to 4.0; in data set [3] (Rate 0.0620 kg/ha), 7.0; in data set [3] (Rate 0.1250 kg/ha), 7.0; in data set [3] (Rate 0.2500 kg/ha), 9.0. Also, the “herbicidal effect rating, CYPSE” value stood at 0.0 in data set [4] (Rate 0.0320 kg/ha), 0.0 in data set [4] (Rate 0.0620 kg/ha), 0.0 in data set [4] (Rate 0.1250 kg/ha) and 4.0 in data set [4] (Rate 0.2500 kg/ha). The “herbicidal effect rating, CYPIR” value is given as 0.0 with Cyperus iria (Rate 0.0320 kg/ha), 3.0 with Cyperus iria (Rate 0.0620 kg/ha), 3.0 with Cyperus iria (Rate 0.1250 kg/ha) and 5.0 with Cyperus iria (Rate 0.2500 kg/ha).
Turning to `Cn1c(C(F)(F)F)cc(=O)n(-c2ccc3snc(C=C(F)Br)c3c2)c1=O` [Example 286, 2,4(1H,3H)-Pyrimidinedione, 3-[3-(2-bromo-2-fluorovinyl)-1,2-benzisothiazol-5-yl]-1-methyl-6-(trifluoromethyl)-], the “ECHORC herbicidal effect rating” value is 0.0 in data set [1] (Rate 0.0320 kg/ha), 0.0 in data set [1] (Rate 0.0620 kg/ha), 3.0 in data set [1] (Rate 0.1250 kg/ha) and 8.0 in data set [1] (Rate 0.2500 kg/ha). For the same compound, the “SAGPY herbicidal effect rating” value in the data set with Sagittaria pygmaea, L. (Rate 0.0320 kg/ha) is reported as 0.0; with Sagittaria pygmaea, L. (Rate 0.0620 kg/ha), 0.0; with Sagittaria pygmaea, L. (Rate 0.1250 kg/ha), 0.0; with Sagittaria pygmaea, L. (Rate 0.2500 kg/ha), 0.0. Besides, the “MOOVA herbicidal effect rating” value in data set [2] (Rate 0.0320 kg/ha), in data set [2] (Rate 0.0620 kg/ha), in data set [2] (Rate 0.1250 kg/ha) and in data set [2] (Rate 0.2500 kg/ha) was 9.0 throughout. The “ORYSAT herbicidal effect rating” value in data set [3] (Rate 0.0320 kg/ha) is recorded as 0.0; in data set [3] (Rate 0.0620 kg/ha), 0.0; in data set [3] (Rate 0.1250 kg/ha), 1.0; in data set [3] (Rate 0.2500 kg/ha) it was 2.0. Further, the “CYPSE herbicidal effect rating” value in data set [4] (Rate 0.0320 kg/ha), in data set [4] (Rate 0.0620 kg/ha), in data set [4] (Rate 0.1250 kg/ha) and in data set [4] (Rate 0.2500 kg/ha) was 0.0 each time. Also, the “CYPIR herbicidal effect rating” value was determined as 3.0 with Cyperus iria (Rate 0.0320 kg/ha), 7.0 with Cyperus iria (Rate 0.0620 kg/ha), 7.0 with Cyperus iria (Rate 0.1250 kg/ha) and 9.0 in the data set on Cyperus iria (Rate 0.2500 kg/ha).
Turning to `Cc1ccc(OCC(=O)OC(C)(C)C)c(-c2noc3ccc(-n4c(=O)cc(C(F)(F)F)n(C)c4=O)c(Cl)c23)c1` [Example 265, Acetic acid, {{2-{4-chloro-5-[3,6-dihydro-3-methyl-2,6-dioxo-4-(trifluoromethyl)-1(2H)-pyrimidinyl]-1,2-benzisoxazol-3-yl}-p-tolyl}oxy}-, tert-butyl ester], the “ECHORC herbicidal effect rating” value in data set [1] (Rate 0.0320 kg/ha), in data set [1] (Rate 0.0620 kg/ha), in data set [1] (Rate 0.1250 kg/ha) and in data set [1] (Rate 0.2500 kg/ha) was 0.0 throughout. Moreover, the “SAGPY herbicidal effect rating” value with Sagittaria pygmaea, L. (Rate 0.0320 kg/ha) came out at 0.0; in the data set on Sagittaria pygmaea, L. (Rate 0.0620 kg/ha), 0.0; with Sagittaria pygmaea, L. (Rate 0.1250 kg/ha), 0.0; with Sagittaria pygmaea, L. (Rate 0.2500 kg/ha) it was 0.0. Also, the “MOOVA herbicidal effect rating” value in data set [2] (Rate 0.0320 kg/ha), in data set [2] (Rate 0.0620 kg/ha), in data set [2] (Rate 0.1250 kg/ha) and in data set [2] (Rate 0.2500 kg/ha) was 9.0 each time. Moreover, the “ORYSAT herbicidal effect rating” value in data set [3] (Rate 0.0320 kg/ha), in data set [3] (Rate 0.0620 kg/ha), in data set [3] (Rate 0.1250 kg/ha) and in data set [3] (Rate 0.2500 kg/ha) was 0.0 throughout. In addition, the “CYPSE herbicidal effect rating” value in data set [4] (Rate 0.0320 kg/ha), in data set [4] (Rate 0.0620 kg/ha), in data set [4] (Rate 0.1250 kg/ha) and in data set [4] (Rate 0.2500 kg/ha) was 0.0 throughout. Moreover, the “CYPIR herbicidal effect rating” value came to 0.0 with Cyperus iria (Rate 0.0320 kg/ha), 0.0 in the data set with Cyperus iria (Rate 0.0620 kg/ha), 0.0 in the data set with Cyperus iria (Rate 0.1250 kg/ha) and 3.0 in the data set with Cyperus iria (Rate 0.2500 kg/ha).
For `Cn1c(C(F)(F)F)cc(=O)n(-c2ccc3snc(C=C(Cl)Cl)c3c2)c1=O` [Example 287, 2,4(1H,3H)-Pyrimidinedione, 3-[3-(2,2-dichlorovinyl)-1,2-benzisothiazol-5-yl]-1-methyl-6-(trifluoromethyl)-], the “ECHORC herbicidal effect rating” value in data set [1] (Rate 0.0320 kg/ha) came to 0.0; in data set [1] (Rate 0.0620 kg/ha) it was 2.0; in data set [1] (Rate 0.1250 kg/ha), 5.0; in data set [1] (Rate 0.2500 kg/ha), 7.0. Further, the “SAGPY herbicidal effect rating” value with Sagittaria pygmaea, L. (Rate 0.0320 kg/ha) is 0.0; with Sagittaria pygmaea, L. (Rate 0.0620 kg/ha) it was 0.0; with Sagittaria pygmaea, L. (Rate 0.1250 kg/ha), 0.0; in the data set with Sagittaria pygmaea, L. (Rate 0.2500 kg/ha), 0.0. Further, the “MOOVA herbicidal effect rating” value in data set [2] (Rate 0.0320 kg/ha), in data set [2] (Rate 0.0620 kg/ha), in data set [2] (Rate 0.1250 kg/ha) and in data set [2] (Rate 0.2500 kg/ha) was 9.0 each time. The “ORYSAT herbicidal effect rating” value is 0.0 in data set [3] (Rate 0.0320 kg/ha), 3.0 in data set [3] (Rate 0.0620 kg/ha), 3.0 in data set [3] (Rate 0.1250 kg/ha) and 5.0 in data set [3] (Rate 0.2500 kg/ha). Moreover, the “CYPSE herbicidal effect rating” value is reported as 0.0 in data set [4] (Rate 0.0320 kg/ha), 0.0 in data set [4] (Rate 0.0620 kg/ha), 0.0 in data set [4] (Rate 0.1250 kg/ha) and 4.0 in data set [4] (Rate 0.2500 kg/ha). For the same compound, the “CYPIR herbicidal effect rating” value is listed as 0.0 in the data set with Cyperus iria (Rate 0.0320 kg/ha), 9.0 in the data set with Cyperus iria (Rate 0.0620 kg/ha), 9.0 in the data set with Cyperus iria (Rate 0.1250 kg/ha) and 9.0 in the data set with Cyperus iria (Rate 0.2500 kg/ha).
